# Experiments:
# [1] = test system: patients with Advanced Solid Tumors; format: in vivo, human
# Description: Oral Minnelide Prodrug. A Phase 1, Multi-Center, Open-Label, Dose-Escalation, Safety, Pharmacokinetic, and Pharmacodynamic Study of Minnelide™ Capsules given alone or in combination with protein-bound paclitaxel in patients with Advanced Solid Tumors. A total of 44 patients were enrolled and dosed in the Phase 1 study, 32 in the monotherapy regimen, and 12 in the combination regimen. The primary reason for discontinuation of treatment has been disease progression. There were 9 deaths in the study, 7 of which were assessed as not related to minnelide prodrug and were after discontinuation of the study drug. One patient on the 1.25 mg monotherapy regimen passed away from G5 related sepsis.
# ovarian carcinoma cells = assay: Proliferation of ovarian carcinoma cells in vitro (activated with alkaline phosphatase); format: cell-based; conditions: concentration-dependent, 50-200 nM
# rats = assay: Definitive toxicity studies in rats (intravenous); format: in vivo; conditions: definitive toxicity study
# Procedure: As clinical development of minnelide prodrug was initiated using an intravenous drug product, IND-enabling toxicology studies were conducted in both rats and dogs using the intravenous route of administration. The results of these studies supported first-in-human clinical trials involving intravenous administration of minnelide prodrug to patients with advanced solid tumors. To support the clinical development of a new solid oral dosage form of minnelide prodrug (capsules), exploratory and definitive toxicity studies were conducted with minnelide prodrug in solution via oral gavage in dogs. Taken together, the results of the intravenous and oral toxicity studies conducted with minnelide prodrug indicate that the target organ profile of minnelide prodrug is consistent in both species (rats and dogs) when administered by either route of administration (intravenous or oral).
# [2] = test system: gastric cancer cell lines MKN28 and MKN45; conditions: inhibits Sp1 to decrease HSP70; cited from earlier work
# [3] = test system: patients with advanced gastric cancer (AGC); assay: Phase 1 study of minnelide prodrug alone or with paclitaxel in advanced gastric cancer (NCT 05566834): safety, DLT, MTD, adverse events
# [4] = 44 patients, alone or with protein-bound paclitaxel
# [5] = Regimen A (PO daily x21 d/28 d), n = 11
smiles,measurement,setting,value
"CC(C)[C@]12O[C@H]1[C@@H]1O[C@]13[C@]1(O[C@H]1C[C@H]1C4=C(CC[C@@]13C)C(=O)OC4)[C@@H]2OCOP(=O)([O-])[O-].[Na+].[Na+] [minnelide prodrug, disodium; [(1S,2S,4S,5S,7S,8R,9R,11S, 13S)-1-methyl-17-oxo-7-propan-2-yl-3,6,10,16-tetraoxaheptacyclo [11.7.0.0^2,4.0^2,9.0^5,7.0^9,11.0^14,18]icos-14 (18)-en-8-yl]oxymethyl phosphate]",Serious Adverse Events related to the study drug,[1]; [4],4
same,"Serious Adverse Events, number",[1]; [4],28
same,patients who discontinued study drug due to TEAE,[1]; [4],Four
same,patients with Serious Adverse Events,[1]; [4],17
same,deaths in the study,"[1]; 44 patients: 32 monotherapy, 12 combination",9
same,deaths assessed as not related to minnelide prodrug,[1]; after discontinuation of the study drug,7
same,patients with at least 1 AE considered related to the study drug,[1]; in vivo,Twenty-seven
same,SAE cases considered dose limiting toxicities (DLTs),"[1]; two events of sepsis, one influenza A pneumonia",Three
same,proliferation,ovarian carcinoma cells,reduced the proliferation
same,"histopathology of reproductive tract tissues, males and females",rats,"adverse, largely irreversible histopathological effects"
same,cell death,[2],induce cell death
same,"Grade 5 AEs caused by gastric cancer progression, number",[3]; Regimen A,3
same,minnelide prodrug-related AE abdominal pain,[3]; Regimen A,27.3%
same,minnelide prodrug-related AE anorexia,[3]; Regimen A,54.5%
same,minnelide prodrug-related AE nausea,[3]; Regimen A,45.5%
same,"Minnelide-related AE Abdominal pain, Any",[3]; [5],3 (27.3) n (%)
same,"Minnelide-related AE Abdominal pain, ≥Gr 3",[3]; [5],2 (18.2) n (%)
same,"Minnelide-related AE Anorexia, Any",[3]; [5],6 (54.5)/— ^ n (%)
same,"Minnelide-related AE Fatigue, Any",[3]; [5],2 (18.2)/— ^ n (%)
same,"Minnelide-related AE Nausea, Any",[3]; [5],5 (45.5) n (%)
same,"Minnelide-related AE Nausea, ≥Gr 3",[3]; [5],2 (18.2) n (%)
same,"Minnelide-related AE Neutropenia, Any",[3]; [5],1 (9.1)/1 (9.1) n (%)
same,"Minnelide-related AE Neutropenia, ≥Gr 3",[3]; [5],1 (9.1)/1 (9.1) n (%)
same,"Minnelide-related AE Overall, Any",[3]; [5],8 (72.7) n (%)
same,"Minnelide-related AE Vomiting, Any",[3]; [5],1 (9.1)/1 (9.1) n (%)
same,"Minnelide-related AE Vomiting, ≥Gr 3",[3]; [5],1 (9.1)/1 (9.1) n (%)
same,"TRAE Abdominal pain, Any",[3]; [5],5 (45.5) n (%)
same,"TRAE Abdominal pain, ≥Gr 3",[3]; [5],2 (18.2) n (%)
same,"TRAE Anemia, Any",[3]; [5],2 (18.2)/2 (18.2) n (%)
same,"TRAE Anemia, ≥Gr 3",[3]; [5],2 (18.2)/2 (18.2) n (%)
same,"TRAE Annualar scaly plaques, Any",[3]; [5],1 (9.1)/— n (%)
same,"TRAE Anorexia, Any",[3]; [5],8 (72.7)/— n (%)
same,"TRAE Azotemia, Any",[3]; [5],1 (9.1)/— n (%)
same,"TRAE Cancer pain, Any",[3]; [5],3 (27.3) n (%)
same,"TRAE Cancer pain, ≥Gr 3",[3]; [5],1 (9.1) n (%)
same,"TRAE Cancer progression, Any",[3]; [5],3 (27.3)/3 (27.3) n (%)
same,"TRAE Cancer progression, ≥Gr 3",[3]; [5],3 (27.3)/3 (27.3) n (%)
same,"TRAE Constipation, Any",[3]; [5],1 (9.1)/— n (%)
same,"TRAE Decreased vision, Any",[3]; [5],1 (9.1)/— n (%)
same,"TRAE Depression, Any",[3]; [5],1 (9.1)/— n (%)
same,"TRAE Dyspepsia, Any",[3]; [5],1 (9.1)/— n (%)
same,"TRAE Dysuria, Any",[3]; [5],1 (9.1)/— n (%)
same,"TRAE Fatigue, Any",[3]; [5],3 (27.3)/— n (%)
same,"TRAE Gastric stenosis, Any",[3]; [5],1 (9.1)/1 (9.1) n (%)
same,"TRAE Gastric stenosis, ≥Gr 3",[3]; [5],1 (9.1)/1 (9.1) n (%)
same,"TRAE Hypophosphatemi, Any",[3]; [5],1 (9.1)/1 (9.1) n (%)
same,"TRAE Hypophosphatemi, ≥Gr 3",[3]; [5],1 (9.1)/1 (9.1) n (%)
same,"TRAE Nausea, Any",[3]; [5],6 (54.5) n (%)
same,"TRAE Nausea, ≥Gr 3",[3]; [5],2 (18.2) n (%)
same,"TRAE Neutropenia, Any",[3]; [5],1 (9.1)/1 (9.1) n (%)
same,"TRAE Neutropenia, ≥Gr 3",[3]; [5],1 (9.1)/1 (9.1) n (%)
same,"TRAE Overall, Any",[3]; [5],11 (100.0) n (%)
same,"TRAE Overall, ≥Gr 3",[3]; [5],8 (72.7) n (%)
same,"TRAE Tachycardia, Any",[3]; [5],1 (9.1)/— n (%)
same,"TRAE Urinary tract infection, Any",[3]; [5],1 (9.1)/— n (%)
same,"TRAE Vomiting, Any",[3]; [5],3 (27.3) n (%)
same,"TRAE Vomiting, ≥Gr 3",[3]; [5],1 (9.1) n (%)
same,"dose-limiting toxicities (DLTs), number","[3]; Regimen A, dose level 3, 1.5 mg, Grade 3 abdominal pain",two and Two
same,"Minnelide-related AE Abdominal pain, Any","[3]; Total Regimens A-C, n = 36",14 (38.9) n (%)
same,"Minnelide-related AE Abdominal pain, ≥Gr 3","[3]; Total Regimens A-C, n = 36",4 (11.1) n (%)
same,"Minnelide-related AE Anorexia, Any","[3]; Total Regimens A-C, n = 36",15 (41.7)/— n (%)
same,"Minnelide-related AE Constipation, Any","[3]; Total Regimens A-C, n = 36",1 (2.8)/— n (%)
same,"Minnelide-related AE Fatigue, Any","[3]; Total Regimens A-C, n = 36",4 (11.1)/— n (%)
same,"Minnelide-related AE General weakness, Any","[3]; Total Regimens A-C, n = 36",1 (2.8)/— n (%)
same,"Minnelide-related AE Nausea, Any","[3]; Total Regimens A-C, n = 36",10 (27.8) n (%)
same,"Minnelide-related AE Nausea, ≥Gr 3","[3]; Total Regimens A-C, n = 36",2(5.6) n (%)
same,"Minnelide-related AE Neutropenia, Any","[3]; Total Regimens A-C, n = 36",11 (30.5) n (%)
same,"Minnelide-related AE Neutropenia, ≥Gr 3","[3]; Total Regimens A-C, n = 36",7 (19.4) n (%)
